Results on nine compounds are retold here after US8822446B2, “Pyrrolopyridine inhibitors of kinases” (AbbVie Inc., priority 2010, dated 2014).

Structures are written as SMILES. pKi: −log10 of the molar value.

This test deals with T1, Cdc7 (BEV coexpressed huCDC7/DBF4) (Homo sapiens, UniProt O00311).
T1 construct: made in house; host or cells: baculovirus expression vector (BEV) co-expression
T1 sequence (O00311 whole entry): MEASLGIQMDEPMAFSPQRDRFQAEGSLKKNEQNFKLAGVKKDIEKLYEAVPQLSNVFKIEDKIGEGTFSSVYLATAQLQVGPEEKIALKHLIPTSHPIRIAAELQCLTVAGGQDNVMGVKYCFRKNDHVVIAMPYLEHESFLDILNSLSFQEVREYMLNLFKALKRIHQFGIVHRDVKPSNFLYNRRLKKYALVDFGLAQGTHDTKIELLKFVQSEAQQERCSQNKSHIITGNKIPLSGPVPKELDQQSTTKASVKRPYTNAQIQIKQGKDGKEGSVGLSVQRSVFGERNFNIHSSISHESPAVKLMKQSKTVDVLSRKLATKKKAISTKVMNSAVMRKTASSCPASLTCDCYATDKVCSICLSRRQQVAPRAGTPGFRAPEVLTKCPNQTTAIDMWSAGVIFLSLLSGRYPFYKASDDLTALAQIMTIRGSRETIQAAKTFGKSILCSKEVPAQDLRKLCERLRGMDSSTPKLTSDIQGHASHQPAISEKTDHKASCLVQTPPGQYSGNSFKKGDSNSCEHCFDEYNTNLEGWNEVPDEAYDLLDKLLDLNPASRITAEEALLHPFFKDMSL
T1 sequence (Q9UBU7 whole entry partner): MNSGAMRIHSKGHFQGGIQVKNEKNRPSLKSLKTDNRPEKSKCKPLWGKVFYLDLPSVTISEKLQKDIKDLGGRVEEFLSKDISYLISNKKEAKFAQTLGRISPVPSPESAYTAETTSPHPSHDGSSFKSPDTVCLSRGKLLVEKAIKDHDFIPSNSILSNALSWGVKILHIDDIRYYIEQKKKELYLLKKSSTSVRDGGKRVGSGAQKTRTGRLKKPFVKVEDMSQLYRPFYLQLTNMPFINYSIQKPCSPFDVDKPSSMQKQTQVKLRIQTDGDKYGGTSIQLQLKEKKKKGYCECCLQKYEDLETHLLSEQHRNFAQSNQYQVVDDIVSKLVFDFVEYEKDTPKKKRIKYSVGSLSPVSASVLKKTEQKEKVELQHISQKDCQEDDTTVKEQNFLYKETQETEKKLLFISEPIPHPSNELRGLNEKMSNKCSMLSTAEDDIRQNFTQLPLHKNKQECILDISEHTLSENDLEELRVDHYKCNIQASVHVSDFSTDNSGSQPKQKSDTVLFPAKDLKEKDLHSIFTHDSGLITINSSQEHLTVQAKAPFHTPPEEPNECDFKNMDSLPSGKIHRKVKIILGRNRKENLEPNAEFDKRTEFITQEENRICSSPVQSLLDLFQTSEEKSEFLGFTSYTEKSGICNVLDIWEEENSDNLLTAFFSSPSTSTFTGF
The test is described as follows: Cdc7 enzyme inhibition assay ([33P]-ATP, biotinylated peptide substrate, FlashPlate). It is filed as biochemical. To be noted: Ki generated from IC50 assuming ATP-competitive inhibition; 1 μM ATP, apparent ATP Km 0.7 μM; 1 hr reaction. As to the method:
This example describes the assays that may be used to identify compounds having kinase activity.
Cdc7 (BEV coexpressed huCDC7/DBF4) is prepared internally. Cdc7 assays are conducted as follows with final concentrations as listed. In 384-well v-bottom polypropylene plates, 6 μL compound (2% DMSO), is mixed with 6 μL of Cdc7 (2 ug/mL), and Jerini peptide substrate A-A11 (biotin-C6linker-[…]) (2 μM), followed by immediate initiation with 6 μL […] (1 μM, 20 mCi/μmol) using a reaction buffer comprising 25 mM HEPES, pH 7.5, 1 mM DTT, 10 mM MgCl2, 100 μM, Na3VO4, 0.075 mg/ml Triton X-100. Reactions are quenched after 1 hr by the addition of 90 μL stop buffer (50 mM EDTA, 2M NaCl).
Table 1 depicts enzyme inhibition data (Ki) for exemplary compounds.
As a reminder, the pKi is the negative decadic logarithm of the Ki, by convention in mol/L. Regarding `O=C(N[C@H]1CC[C@H](Nc2cc(-c3c[nH]c4ncccc34)cc(=O)[nH]2)CC1)C1CN(Cc2ccc(F)cc2)C1` [Example 59, 1-(4-fluorobenzyl)-N-(trans-4-{[6-oxo-4-(1H-pyrrolo[2,3-b]pyridin-3-yl)-1,6-dihydropyridin-2-yl]amino}cyclohexyl)azetidine-3-carboxamide], the negative-log Ki (pKi) was more than 8.00.

`O=c1cc(-c2c[nH]c3ncccc23)cc(-c2cccc(OC(F)(F)F)c2)[nH]1` [Example 35, 4-(1H-pyrrolo[2,3-b]pyridin-3-yl)-6-[3-(trifluoromethoxy)phenyl]pyridin-2(1H)-one]: the negative-log Ki (pKi) is more than 8.00.

With `O=c1cc(-c2c[nH]c3ncccc23)nc(NC2CCCCC2)[nH]1` [Example 1, 2-(cyclohexylamino)-6-(1H-pyrrolo[2,3-b]pyridin-3-yl)pyrimidin-4(3H)-one], the pKi was more than 8.00.

On to `NCCOCCOCCNc1nc(-c2c[nH]c3ncccc23)cc(=O)[nH]1` [Example 31, 2-({2-[2-(2-aminoethoxy)ethoxy]ethyl}amino)-6-(1H-pyrrolo[2,3-b]pyridin-3-yl)pyrimidin-4(3H)-one], for which the pKi was more than 8.00.

On to `COc1cccc(-c2cc(-c3c[nH]c4ncccc34)cc(=O)[nH]2)c1F` [Example 44, 6-(2-fluoro-3-methoxyphenyl)-4-(1H-pyrrolo[2,3-b]pyridin-3-yl)pyridin-2(1H)-one], for which the pKi is more than 8.00.

Regarding `O=c1cc(-c2c[nH]c3ncccc23)cc(-c2cccc(N3CCOCC3)c2)[nH]1` [Example 50, 6-[3-(morpholin-4-yl)phenyl]-4-(1H-pyrrolo[2,3-b]pyridin-3-yl)pyridin-2(1H)-one], the pKi is more than 8.00.

For the compound `O=c1cc(-c2c[nH]c3ncccc23)cc(Nc2ccccc2)[nH]1` [Example 55, 6-anilino-4-(1H-pyrrolo[2,3-b]pyridin-3-yl)pyridin-2(1H)-one], the pKi is more than 8.00.

With `O=c1cc(-c2c[nH]c3ncccc23)nc(NCCCN2CCOCC2)[nH]1` [Example 22, 2-{[3-(morpholin-4-yl)propyl]amino}-6-(1H-pyrrolo[2,3-b]pyridin-3-yl)pyrimidin-4(3H)-one], the pKi was more than 8.00.

For the compound `O=c1cc(-c2c[nH]c3ncccc23)nc(NCc2cccc(O)c2)[nH]1` [Example 23, 2-[(3-hydroxybenzyl)amino]-6-(1H-pyrrolo[2,3-b]pyridin-3-yl)pyrimidin-4(3H)-one], the pKi is more than 8.00.
